Measurements published in patent publication US11478457B2, “Castration-resistant prostate cancer” (priority 2015, dated 2022).

biological target: T1, UDP-glucose dehydrogenase (Homo sapiens, UniProt O60701); test: High throughput screening for inhibitors of UDP-glucose dehydrogenase (NADH fluorescence); type: biochemical; conditions: not given
T1 sequence (O60701 1-494): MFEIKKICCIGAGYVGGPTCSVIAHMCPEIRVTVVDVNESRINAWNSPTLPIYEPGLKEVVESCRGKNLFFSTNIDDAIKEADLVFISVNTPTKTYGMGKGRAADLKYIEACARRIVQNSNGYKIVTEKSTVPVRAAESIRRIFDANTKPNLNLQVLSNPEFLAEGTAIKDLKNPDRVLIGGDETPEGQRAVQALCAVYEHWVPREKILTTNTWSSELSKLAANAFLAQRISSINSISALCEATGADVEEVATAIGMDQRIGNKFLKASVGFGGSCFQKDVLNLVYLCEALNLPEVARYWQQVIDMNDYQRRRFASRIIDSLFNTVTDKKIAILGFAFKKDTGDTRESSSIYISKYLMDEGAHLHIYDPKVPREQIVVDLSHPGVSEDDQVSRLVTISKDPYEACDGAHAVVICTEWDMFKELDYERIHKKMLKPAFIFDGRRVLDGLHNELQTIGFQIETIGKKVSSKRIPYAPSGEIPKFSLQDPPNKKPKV

Row | SMILES | POC (Percent of Controls)
1 | O=C([O-])c1ccccc1-c1c2cc(Br)c(=O)cc-2oc2[c]([Hg][OH])c([O-])c(Br)cc12.[Na+].[Na+] | 97%

same assay, conditions: compound plates 20 μL/well of 25 μg/mL compound in 2.5% DMSO; relative to DMSO negative and UDP-xylose positive controls; higher POC = more inhibitory; read-out: POC (Percent of Controls)

Row | SMILES | inhibition at 25 µg/mL (stock)
2 | O=c1oc2cc(Br)c(O)c(Br)c2s1 | 51%
3 | COc1ccc(-c2ccc(CCC(=O)O)o2)cc1 | 57%
4 | COC(=O)Oc1c(Cl)cc2oc(=O)sc2c1[N+](=O)[O-] | 73%
5 | Cc1nnc(SC2CC(=O)N(c3ccc(Br)cc3)C2=O)s1 (centres unmarked) | 47%
6 | CC(=O)C1=C(C)NC(SCc2cccc([N+](=O)[O-])c2)=C(C#N)C1c1cccnc1 (centres unmarked) | 51%
7 | CC(=O)Oc1cc(-c2coc3cc(OC(C)=O)c(OC(C)=O)c(OC(C)=O)c3c2=O)cc(OC(C)=O)c1OC(C)=O | 98%
8 | N#CSC(C#N)Cc1ccc([N+](=O)[O-])cc1 (centres unmarked) | 80%
9 | O=C(Nc1nc2c(s1)CCCC2)c1cccs1 | 45%
10 | Cc1cc(=O)n2ccc(N)c(O)c2n1 | 50%
11 | N#Cc1ccc(Oc2ccc(C(=O)Nc3ccccc3)cc2)cc1 | 54%
12 | O=C(O[C@@H]1Cc2c(O)cc(O)cc2O[C@@H]1c1cc(O)c(O)c(O)c1-c1c([C@H]2Oc3cc(O)cc(O)c3C[C@H]2O)cc(O)c(O)c1O)c1cc(O)c(O)c(O)c1 | 83%
13 | NC(=O)c1c(NC(=O)C2CCCO2)sc2c1CCCCCC2 (centres unmarked) | 74%
14 | CCOc1ccc(N/C(=N/N)c2ccc3ccccc3n2)cc1 | 66%
15 | O=C(Nc1ccc2c(c1)OCCO2)c1cc2ccccc2o1 | 103%
16 | Cc1nnc(SC2CC(=O)N(c3ccc(Oc4ccccc4)cc3)C2=O)s1 (centres unmarked) | 58%
17 | CCC(C)(O)c1nnn(-c2nonc2N)c1C(C)(O)CC (centres unmarked) [drawing 178] | 101%
18 | O=C(O[C@@H]1Cc2c(O)cc(O)cc2O[C@@H]1c1cc(O)c(=O)c2c(O)c(O)cc([C@H]3Oc4cc(O)cc(O)c4C[C@H]3O)c2c1)c1cc(O)c(O)c(O)c1 | 76%
19 | O=[N+]([O-])c1ccc(SCc2ccco2)c2cccnc12 | 57%
20 | CC1(C)CC(=O)C2=C(C1)OC(N)=C(C#N)C21CCCC1 | 126%
21 | c1ccc(Nc2nc(-c3ccccc3)[n+](-c3ccccc3)s2)cc1 | 52%
22 | COc1ccc(-c2ccc(CCC(=O)O)[nH]2)cc1 | 62%
23 | O=C1CC(Sc2ccccn2)C(=O)N1c1cccc(Cl)c1Cl (centres unmarked) | 49%
24 | CC/C(=C/c1ccc(O)c(OC)c1)[N+](=O)[O-] | 63%

Row | SMILES | inhibition at 25 µg/mL (stock)
25 | O=C(Nc1ccc2nc(-c3ccco3)c(-c3ccco3)nc2c1)N1CCOCC1 | 47%
26 | O=C(O[C@@H]1Cc2c(O)cc(O)cc2O[C@@H]1c1cc(O)c(O)c(O)c1-c1c([C@H]2Oc3cc(O)cc(O)c3C[C@H]2OC(=O)c2cc(O)c(O)c(O)c2)cc(O)c(O)c1O)c1cc(O)c(O)c(O)c1 | 73%
27 | CN1CCc2c(sc(N)c2C#N)C1 | 55%
28 | Nc1ncc(C2=C(Cl)C(O)C(Cl)=C(Cl)C2O)s1 (centres unmarked) | 71%
29 | O=c1c(O)cccc2c([C@H]3Oc4cc(O)cc(O)c4C[C@H]3O)cc(O)c(O)c12 | 53%
30 | COc1ccc(OC)c(N2C(=O)CC(Sc3nc4ccccc4s3)C2=O)c1 (centres unmarked) | 68%
31 | COc1cc(/C=C(\C)[N+](=O)[O-])cc(OC)c1OC | 61%
32 | O=C(O)c1cc(O)c(O)c(O)c1 | 71%
33 | C[n+]1sc(Nc2ccccc2)nc1-c1ccccc1 | 58%
34 | O=C(O[C@@H]1Cc2c(O)cc(O)cc2O[C@@H]1c1cc(O)c(O)c(O)c1)c1cc(O)c(O)c(O)c1 | 76%
35 | O=c1c(O)cc([C@H]2Oc3cc(O)cc(O)c3C[C@H]2O)cc2c([C@H]3Oc4cc(O)cc(O)c4C[C@H]3O)cc(O)c(O)c12 | 83%
36 | Cc1[nH]nc(-c2ccc(O)c(O)c2O)c1Oc1ccccc1 | 46%
37 | O=c1c(-c2cc(O)c(O)c(O)c2)coc2cc(O)c(O)c(O)c12 | 98%
38 | Cc1cc(C)n(-c2ccc3cccc([N+](=O)[O-])c3n2)n1 | 88%
39 | O=C(Oc1cc(O)cc2c1C[C@@H](OC(=O)c1cc(O)c(O)c(O)c1)[C@@H](c1cc(O)c(O)c(O)c1)O2)c1cc(O)c(O)c(O)c1 | 67%
40 | Cc1sc(NC(=O)Cc2ccc([N+](=O)[O-])cc2)c(C(N)=O)c1C | 75%
41 | O=C(O)COc1cccc(/C=C/[N+](=O)[O-])c1 | 67%
42 | O=C1CC(Sc2nnnn2-c2ccccc2)C(=O)N1c1ccc([N+](=O)[O-])cc1 (centres unmarked) | 73%
43 | CCc1cccc(NC(=O)NC2CCCCC2)c1 | 45%
44 | Cc1ccc(-c2csc(N)c2C(N)=O)cc1C | 47%
45 | O=C(Cc1ccccc1)c1ccc(O)c(O)c1O | 46%
46 | O=C(OC[C@H]1O[C@H](OC(=O)c2cc(O)c(O)c(OC(=O)c3cc(O)c(O)c(O)c3)c2)[C@H](OC(=O)c2cc(O)c(O)c(OC(=O)c3cc(O)c(O)c(O)c3)c2)[C@@H](OC(=O)c2cc(O)c(O)c(OC(=O)c3cc(O)c(O)c(O)c3)c2)[C@@H]1OC(=O)c1cc(O)c(O)c(OC(=O)c2cc(O)c(O)c(O)c2)c1)c1cc(O)c(O)c(OC(=O)c2cc(O)c(O)c(O)c2)c1 | 69%
47 | O=C(O[C@@H]1Cc2c(O)cc(O)cc2O[C@@H]1c1cc(O)c(=O)c2c(O)c(O)cc([C@H]3Oc4cc(O)cc(O)c4C[C@H]3OC(=O)c3cc(O)c(O)c(O)c3)c2c1)c1cc(O)c(O)c(O)c1 | 59%

Row | SMILES | inhibition at 25 µg/mL (stock)
48 | O=C(CN1CCCCC1)Nc1ccc(S(=O)(=O)N2CCOCC2)cc1 | 48%
49 | O=C1c2ccc(O)cc2O[C@H](c2cc(O)c(O)c(O)c2)[C@H]1O | 96%
50 | Cc1ccc(OCCn2ccnc2)cc1 | 85%
51 | COc1cc(NC(=O)COc2ccc(C)cc2C)ccc1NC(=O)c1ccco1 | 70%
52 | Cc1cc(O)ccc1NC(=O)c1ccccc1 | 46%
53 | Nc1ccc(S(=O)(=O)c2ccc(N)c(N)c2)cc1N | 50%
54 | CCN(CC)c1ccc(N)c(C)c1 | 46%
55 | CC(=O)NC(CC(=O)c1ccc(Cl)cc1Cl)C(Cl)(Cl)Cl (centres unmarked) | 86%
56 | N#CSc1cnc(NC2CCCCC2)s1 | 66%
57 | COc1ccc(-c2ccc(CCC(=O)O)n2-c2ccc(O)cc2)cc1 | 57%
58 | COc1ccc2[nH]cc(CCNC(=O)c3ccc([N+](=O)[O-])cc3)c2c1 | 61%
59 | Nc1ccccc1S(=O)(=O)Nc1cccc2cccnc12 | 72%
60 | CC(C)(C)C(=O)NCCNc1ccc([N+](=O)[O-])cc1 | 47%
61 | Cc1ccc(-c2ccc(CCC(=O)O)o2)cc1 | 82%
62 | O=c1c(O)cccc2ccc(O)c(O)c12 | 73%
63 | CC(C)N(CCC#N)S(=O)(=O)c1ccccc1[N+](=O)[O-] | 81%
64 | CCCCC(NC(=O)c1cccc(Br)c1)C(=O)O (centres unmarked) | 103%
65 | CCSc1sc(SC#N)cc1SC#N | 83%
66 | COc1cc(-c2ccc(NC(=O)c3ccoc3C)c(OC)c2)ccc1NC(=O)c1ccoc1C | 45%
67 | Cc1ccccc1-c1nnc(N)s1 | 51%
68 | O=C1CC(Sc2nc3ccccc3s2)C(=O)N1c1ccccc1I (centres unmarked) | 58%
